Columns and labels:
cyclin B/CDK1 enzyme = target: T1, cyclin B/CDK1 enzyme (Homo sapiens, UniProt P06493); test: CDK1 ELISA kinase assay (phospho-Rb ser 795 detection); assay type: biochemical; settings: In Vitro Enzyme Assay, cyclin B/CDK1, read-out: CDK1 IC50
T1 construct: purchased New England BioLabs; host or cells: Sf9 insect cells, recombinant baculovirus
In short: (§1)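 ELISA format: plate-bound GST-Rb, 200 μM ATP, Sf9 cyclin/CDK enzyme, 1 h at 30° C; then anti-pRb Ser795 primary overnight at 4° C, HRP secondary, TMB. IC50 after no-substrate background subtraction.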

BT474 = test: Cytotoxicity assay (SRB), BT474; assay type: cell-based; settings: Homo sapiens, BT-474, 144 h, BT474 cells, 6 days, SRB; read-out: In Vitro Cellular Activity IC50 BT474
In short: (§2)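 Cells grown in RPMI 1640 with 5% FBS were treated with compound for three days (HCT-116, LoVo, MCF-7) or six days (BT474). Viable cell mass was quantified by sulforhodamine B staining of TCA-fixed protein and read at 540 nm.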

cyclin E/CDK2 enzyme = target: T2, cyclin E/CDK2 enzyme (Homo sapiens, UniProt P24941); test: CDK2 ELISA kinase assay (phospho-Rb ser 795 detection); assay type: biochemical; settings: In Vitro Enzyme Assay, cyclin E/CDK2, read-out: CDK2 IC50
T2 construct: made in house; host or cells: Sf9 insect cells, recombinant baculovirus
In short: as §1

cyclin D1/cdk 4 enzyme = target: T3, cyclin D1/cdk 4 enzyme (Homo sapiens, UniProt P11802); test: CDK4 ELISA kinase assay (phospho-Rb ser 795 detection); assay type: biochemical; settings: In Vitro Enzyme Assay, cyclin D1/cdk 4, read-out: CDK4 IC50
T3 construct: made in house; host or cells: Sf9 insect cells, recombinant baculovirus
T3 sequence (P11802 whole entry, species assumed): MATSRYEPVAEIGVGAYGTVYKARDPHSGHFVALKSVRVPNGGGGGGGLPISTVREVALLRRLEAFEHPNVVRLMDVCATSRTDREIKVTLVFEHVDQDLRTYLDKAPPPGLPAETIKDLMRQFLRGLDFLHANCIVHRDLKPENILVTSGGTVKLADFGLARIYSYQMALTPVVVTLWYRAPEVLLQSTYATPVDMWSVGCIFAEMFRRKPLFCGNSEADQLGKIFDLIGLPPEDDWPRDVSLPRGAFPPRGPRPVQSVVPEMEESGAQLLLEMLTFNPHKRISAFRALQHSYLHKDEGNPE
T3 sequence (P24385 whole entry partner, species assumed): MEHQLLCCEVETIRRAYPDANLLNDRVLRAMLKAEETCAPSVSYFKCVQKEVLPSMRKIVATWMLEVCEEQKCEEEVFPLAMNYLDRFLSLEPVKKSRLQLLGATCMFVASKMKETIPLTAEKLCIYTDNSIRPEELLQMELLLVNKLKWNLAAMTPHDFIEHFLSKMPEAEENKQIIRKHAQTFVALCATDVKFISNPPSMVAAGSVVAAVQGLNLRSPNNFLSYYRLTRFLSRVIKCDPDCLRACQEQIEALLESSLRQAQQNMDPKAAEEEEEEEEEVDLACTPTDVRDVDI
In short: as §1

LoVo = test: Cytotoxicity assay (SRB), LoVo; assay type: cell-based; settings: Homo sapiens, LoVo, 72 h, LoVo cells, 3 days, SRB; read-out: In Vitro Cellular Activity IC50 LOVO
In short: as §2

MCF-7 = test: Cytotoxicity assay (SRB), MCF-7; assay type: cell-based; settings: Homo sapiens, MCF7, 72 h, MCF-7 cells, 3 days, SRB; read-out: In Vitro Cellular Activity IC50 MCF-7
In short: as §2

HCT-116 = test: Cytotoxicity assay (SRB), HCT-116; assay type: cell-based; settings: Homo sapiens, HCT-116, 72 h, HCT116 cells, 3 days, SRB; read-out: In Vitro Cellular Activity IC50 HCT116
In short: as §2

T1 sequence (P06493 whole entry): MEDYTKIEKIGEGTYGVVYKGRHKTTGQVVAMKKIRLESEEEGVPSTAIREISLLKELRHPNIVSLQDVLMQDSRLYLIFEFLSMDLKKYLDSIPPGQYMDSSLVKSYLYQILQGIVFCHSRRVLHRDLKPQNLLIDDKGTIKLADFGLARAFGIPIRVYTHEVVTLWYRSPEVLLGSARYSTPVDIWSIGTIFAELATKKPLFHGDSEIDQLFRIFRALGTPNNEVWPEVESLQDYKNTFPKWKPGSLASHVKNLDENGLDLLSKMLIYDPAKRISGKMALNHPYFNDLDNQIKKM
T1 sequence (P14635 whole entry partner): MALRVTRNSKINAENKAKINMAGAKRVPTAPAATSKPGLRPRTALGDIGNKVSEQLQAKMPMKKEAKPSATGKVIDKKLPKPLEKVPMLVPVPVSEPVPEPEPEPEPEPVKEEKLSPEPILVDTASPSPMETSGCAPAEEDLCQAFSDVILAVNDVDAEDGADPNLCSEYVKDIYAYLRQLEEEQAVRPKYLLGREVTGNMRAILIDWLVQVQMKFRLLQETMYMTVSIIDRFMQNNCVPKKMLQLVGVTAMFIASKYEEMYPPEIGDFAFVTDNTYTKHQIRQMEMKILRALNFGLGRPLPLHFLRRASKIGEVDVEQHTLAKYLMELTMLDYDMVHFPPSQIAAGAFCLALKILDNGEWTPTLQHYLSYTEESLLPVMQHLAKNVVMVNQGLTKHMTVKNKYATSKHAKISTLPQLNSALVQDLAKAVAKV

IC50 (cyclin B/CDK1 enzyme) [µM] | IC50 (cyclin E/CDK2 enzyme) [µM] | IC50 (cyclin D1/cdk 4 enzyme) [µM] | Structure (SMILES) | IC50 (BT474) [µM] | IC50 (LoVo) [µM] | IC50 (MCF-7) [µM] | IC50 (HCT-116) [µM]
16.9 | 19.7 | 1.2 | NS(=O)(=O)c1ccc(CNC=C2C(=O)NC(=O)c3ccc(-c4cc5ccccc5s4)cc32)cc1 [Example 635, 4-{[(6-Benzo[b]thiophen-2-yl-1,3-dioxo-2,3-dihydro-1H-isoquinolin-4-ylidenemethyl)-amino]-methyl}-benzenesulfonamide] | 37.2 | > 50 | 11.4 | 23.6
18 | 13.5 | 0.81 | NS(=O)(=O)c1ccc(CNC=C2C(=O)NC(=O)c3ccc(-c4ccc5[nH]ccc5c4)cc32)cc1 [Example 637, 4-({[6-(1H-Indol-5-yl)-1,3-dioxo-2,3-dihydro-1H-isoquinolin-4-ylidenemethyl]-amino}-methyl)-benzenesulfonamide] | 29.2 | > 50 | 22.7 | > 50
17.3 | 6 | 0.05 | NS(=O)(=O)c1ccc(CNC=C2C(=O)NC(=O)c3ccc(-c4ccc[nH]4)cc32)cc1 [Example 638, 4-({[1,3-Dioxo-6-(1H-pyrrol-2-yl)-2,3-dihydro-1H-isoquinolin-4-ylidenemethyl]-amino}-methyl)-benzenesulfonamide] | 35.9 | > 50 | > 50 | > 50
> 50 | 19.7 | 9.2 | NS(=O)(=O)c1ccc(CNC=C2C(=O)NC(=O)c3ccc(-c4cc[nH]c4)cc32)cc1 [Example 639, 4-({[1,3-Dioxo-6-(1H-pyrrol-3-yl)-2,3-dihydro-1H-isoquinolin-4-ylidenemethyl]-amino}-methyl)-benzenesulfonamide] | 18.7 | > 50 | 25.8 | > 50
> 50 | > 50 | 1.9 | O=C1NC(=O)c2ccc(-c3ccc4ccccc4c3)cc2C1=CNCc1ccc(O)c(O)c1 [Example 641, 4-[(3,4-Dihydroxy-benzylamino)-methylene]-6-naphthalen-2-yl-4H-isoquinoline-1,3-dione] | 19.7 | 9.4 | 9.6 | 10.5
> 50 | 28.3 | 1 | O=C1NC(=O)c2ccc(-c3cccc4cccnc34)cc2C1=CNCc1ccc(O)c(O)c1 [Example 642, 4-[(3,4-Dihydroxy-benzylamino)-methylene]-6-quinolin-8-yl-4H-isoquinoline-1,3-dione] | 14.2 | 12.1 | 12.7 | 20.5
> 50 | > 50 | 2 | O=C1NC(=O)c2ccc(-c3cc4ccccc4s3)cc2C1=CNCc1ccc(O)c(O)c1 [Example 644, 6-Benzo[b]thiophen-2-yl-4-[(3,4-dihydroxy-benzylamino)-methylene]-4H-isoquinoline-1,3-dione] | 17.9 | 19.1 | 6.3 | 14.1
13.5 | 2.9 | 0.04 | O=C1NC(=O)c2ccc(-c3ccc4[nH]ccc4c3)cc2C1=CNCc1ccc(O)c(O)c1 [Example 646, 4-[(3,4-Dihydroxy-benzylamino)-methylene]-6-(1H-indol-5-yl)-4H-isoquinoline-1,3-dione] | 11.9 | 10.7 | 7.7 | 8.4
8.6 | 2.6 | < 0.005 | O=C1NC(=O)c2ccc(-c3ccc[nH]3)cc2C1=CNCc1ccc(O)c(O)c1 [Example 647, 4-[(3,4-Dihydroxy-benzylamino)-methylene]-6-(1H-pyrrol-2-yl)-4H-isoquinoline-1,3-dione] | 18.3 | 9.5 | 19.5 | 15.3
23.6 | 11 | 0.57 | NS(=O)(=O)c1ccc(CNC=C2C(=O)NC(=O)c3ccc(C=Cc4cnccn4)cc32)cc1 [Example 655, 4-({[1,3-Dioxo-6-(2-pyrazin-2-yl-vinyl)-2,3-dihydro-1H-isoquinolin-4-ylidenemethyl]-amino}-methyl)-benzenesulfonamide] | 2 | 7.6 | 7.7 | 1.2
> 50 | 18 | 0.44 | Cc1ncsc1C=Cc1ccc2c(c1)C(=CNCc1ccc(S(N)(=O)=O)cc1)C(=O)NC2=O [Example 659, 4-[({6-[2-(4-Methyl-thiazol-5-yl)-vinyl]-1,3-dioxo-2,3-dihydro-1H-isoquinolin-4-ylidenemethyl}-amino)-methyl]-benzenesulfonamide] | 23.1 | > 50 | 40.9 | 26
> 50 | 33.9 | 2.48 | O=C1NC(=O)c2ccc(C=CCc3ccccc3)cc2C1=CNCc1ccc(O)c(O)c1 [Example 660, 4-[(3,4-Dihydroxy-benzylamino)-methylene]-6-(3-phenyl-propenyl)-4H-isoquinoline-1,3-dione] | 10.4 | 7.6 | 6.1 | 7
> 50 | > 50 | 0.17 | O=C1NC(=O)c2ccc(C=Cc3ccccn3)cc2C1=CNCc1ccc(O)c(O)c1 [Example 662, 4-[(3,4-Dihydroxy-benzylamino)-methylene]-6-(2-pyridin-2-yl-vinyl)-4H-isoquinoline-1,3-dione] | 35.8 | > 50 | 30.6 | > 50
> 50 | 31.7 | 0.22 | O=C1NC(=O)c2ccc(C=CC3CCCCC3)cc2C1=CNCc1ccc(O)c(O)c1 [Example 664, 6-(2-Cyclohexyl-vinyl)-4-[(3,4-dihydroxy-benzylamino)-methylene]-4H-isoquinoline-1,3-dione] | 9.3 | 6 | 4.8 | 6.7
42.5 | 8.2 | 0.16 | O=C1NC(=O)c2ccc(C=CCn3ccnc3)cc2C1=CNCc1ccc(O)c(O)c1 [Example 665, 4-[(3,4-Dihydroxy-benzylamino)-methylene]-6-(3-imidazol-1-yl-propenyl)-4H-isoquinoline-1,3-dione] | 28.9 | > 50 | 13 | 46.8
> 50 | 4 | 0.01 | O=C1NC(=O)c2ccc(C=Cn3ccnc3)cc2C1=CNCc1ccc(O)c(O)c1 [Example 667, 4-[(3,4-Dihydroxy-benzylamino)-methylene]-6-(2-imidazol-1-yl-vinyl)-4H-isoquinoline-1,3-dione] | > 50 | 29.4 | 12.4 | > 50
11.8 | 38 | 2 | CN1CCN(c2ccc(NC=C3C(=O)NC(=O)c4ccc(-c5ccc6[nH]ccc6c5)cc43)cc2)CC1 [Example 671, 6-(1H-Indol-5-yl)-4-{[4-(4-methyl-piperazin-1-yl)-phenylamino]-methylene}-4H-isoquinoline-1,3-dione] | 2.8 | 4.1 | 4.4 | 2.3

Source: patent publication US7713994B2 (Wyeth LLC, priority 2005, dated 2010)
